Experiments:
Type in all cases: functional
OCI-Ly10 [1] = assay: Growth inhibition of human OCILY10 cells at 3.3 uM incubated for 3 days in presence of 0.017 uM acalabrutinib relative to control; conditions: OCI-Ly10, 72 h, time 3 day, read-out: GI
OCI-Ly10 [2] = assay: Growth inhibition of human OCILY10 cells at 3.3 uM incubated for 3 days in presence of 0.33 uM acalabrutinib relative to control; conditions: OCI-Ly10, 72 h, time 3 day, read-out: GI
OCI-Ly10 [3] = assay: Growth inhibition of human OCILY10 cells at 0.33 uM incubated for 3 days in presence of 0.33 uM acalabrutinib relative to control; conditions: OCI-Ly10, 72 h, time 3 day, read-out: GI
OCI-Ly10 [4] = assay: Growth inhibition of human OCILY10 cells at 3.3 uM incubated for 3 days in presence of 0.003 uM acalabrutinib relative to control; conditions: OCI-Ly10, 72 h, time 3 day, read-out: GI
SUD4 [5] = assay: Growth inhibition of human SU-DHL-4 cells at 10 uM incubated for 3 days in presence of 0.003 uM acalabrutinib relative to control; conditions: SU-DHL-4, 72 h, time 3 day, read-out: GI
OCI-Ly10 [6] = assay: Growth inhibition of human OCILY10 cells at 10 uM incubated for 3 days in presence of 0.33 uM acalabrutinib relative to control; conditions: OCI-Ly10, 72 h, time 3 day, read-out: GI
SUD4 [7] = assay: Growth inhibition of human SU-DHL-4 cells at 10 uM incubated for 3 days in presence of 0.33 uM acalabrutinib relative to control; conditions: SU-DHL-4, 72 h, time 3 day, read-out: GI
OCI-Ly10 [8] = assay: Growth inhibition of human OCILY10 cells at 10 uM incubated for 3 days in presence of 0.003 uM acalabrutinib relative to control; conditions: OCI-Ly10, 72 h, time 3 day, read-out: GI
OCI-Ly10 [9] = assay: Growth inhibition of human OCILY10 cells at 10 uM incubated for 3 days in presence of 0.17 uM acalabrutinib relative to control; conditions: OCI-Ly10, 72 h, time 3 day, read-out: GI
OCI-Ly10 [10] = assay: Growth inhibition of human OCILY10 cells at 0.33 uM incubated for 3 days in presence of 0.17 uM acalabrutinib relative to control; conditions: OCI-Ly10, 72 h, time 3 day, read-out: GI
OCI-Ly10 [11] = assay: Growth inhibition of human OCILY10 cells at 0.33 uM incubated for 3 days in presence of 0.003 uM acalabrutinib relative to control; conditions: OCI-Ly10, 72 h, time 3 day, read-out: GI
SUD4 [12] = assay: Growth inhibition of human SU-DHL-4 cells at 1.7 uM incubated for 3 days in presence of 0.017 uM acalabrutinib relative to control; conditions: SU-DHL-4, 72 h, time 3 day, read-out: GI
SUD4 [13] = assay: Growth inhibition of human SU-DHL-4 cells at 3.3 uM incubated for 3 days in presence of 0.033 uM acalabrutinib relative to control; conditions: SU-DHL-4, 72 h, time 3 day, read-out: GI
SUD4 [14] = assay: Growth inhibition of human SU-DHL-4 cells at 0.17 uM incubated for 3 days in presence of 0.033 uM acalabrutinib relative to control; conditions: SU-DHL-4, 72 h, time 3 day, read-out: GI
OCI-Ly10 [15] = assay: Growth inhibition of human OCILY10 cells at 0.17 uM incubated for 3 days in presence of 0.003 uM acalabrutinib relative to control; conditions: OCI-Ly10, 72 h, time 3 day, read-out: GI
SUD4 [16] = assay: Growth inhibition of human SU-DHL-4 cells at 3.3 uM incubated for 3 days in presence of 0.33 uM acalabrutinib relative to control; conditions: SU-DHL-4, 72 h, time 3 day, read-out: GI
OCI-Ly10 [17] = assay: Growth inhibition of human OCILY10 cells at 1.7 uM incubated for 3 days in presence of 0.33 uM acalabrutinib relative to control; conditions: OCI-Ly10, 72 h, time 3 day, read-out: GI
SUD4 [18] = assay: Growth inhibition of human SU-DHL-4 cells at 1.7 uM incubated for 3 days in presence of 0.033 uM acalabrutinib relative to control; conditions: SU-DHL-4, 72 h, time 3 day, read-out: GI
OCI-Ly10 [19] = assay: Growth inhibition of human OCILY10 cells at 3.3 uM incubated for 3 days in presence of 0.033 uM acalabrutinib relative to control; conditions: OCI-Ly10, 72 h, time 3 day, read-out: GI
OCI-Ly10 [20] = assay: Growth inhibition of human OCILY10 cells at 0.33 uM incubated for 3 days in presence of 0.017 uM acalabrutinib relative to control; conditions: OCI-Ly10, 72 h, time 3 day, read-out: GI
OCI-Ly10 [21] = assay: Growth inhibition of human OCILY10 cells at 10 uM incubated for 3 days in presence of 0.017 uM acalabrutinib relative to control; conditions: OCI-Ly10, 72 h, time 3 day, read-out: GI
SUD4 [22] = assay: Growth inhibition of human SU-DHL-4 cells at 3.3 uM incubated for 3 days in presence of 0.017 uM acalabrutinib relative to control; conditions: SU-DHL-4, 72 h, time 3 day, read-out: GI
OCI-Ly10 [23] = assay: Growth inhibition of human OCILY10 cells at 0.17 uM incubated for 3 days in presence of 0.017 uM acalabrutinib relative to control; conditions: OCI-Ly10, 72 h, time 3 day, read-out: GI
SUD4 [24] = assay: Growth inhibition of human SU-DHL-4 cells at 3.3 uM incubated for 3 days in presence of 0.17 uM acalabrutinib relative to control; conditions: SU-DHL-4, 72 h, time 3 day, read-out: GI
OCI-Ly10 [25] = assay: Growth inhibition of human OCILY10 cells at 0.17 uM incubated for 3 days in presence of 0.33 uM acalabrutinib relative to control; conditions: OCI-Ly10, 72 h, time 3 day, read-out: GI
SUD4 [26] = assay: Growth inhibition of human SU-DHL-4 cells at 1.7 uM incubated for 3 days in presence of 0.17 uM acalabrutinib relative to control; conditions: SU-DHL-4, 72 h, time 3 day, read-out: GI
OCI-Ly10 [27] = assay: Growth inhibition of human OCILY10 cells at 1.7 uM incubated for 3 days in presence of 0.17 uM acalabrutinib relative to control; conditions: OCI-Ly10, 72 h, time 3 day, read-out: GI
SUD4 [28] = assay: Growth inhibition of human SU-DHL-4 cells at 3.3 uM incubated for 3 days in presence of 0.003 uM acalabrutinib relative to control; conditions: SU-DHL-4, 72 h, time 3 day, read-out: GI
SUD4 [29] = assay: Growth inhibition of human SU-DHL-4 cells at 10 uM incubated for 3 days in presence of 0.033 uM acalabrutinib relative to control; conditions: SU-DHL-4, 72 h, time 3 day, read-out: GI
SUD4 [30] = assay: Growth inhibition of human SU-DHL-4 cells at 10 uM incubated for 3 days in presence of 0.17 uM acalabrutinib relative to control; conditions: SU-DHL-4, 72 h, time 3 day, read-out: GI
SUD4 [31] = assay: Growth inhibition of human SU-DHL-4 cells at 0.17 uM incubated for 3 days in presence of 0.003 uM acalabrutinib relative to control; conditions: SU-DHL-4, 72 h, time 3 day, read-out: GI
OCI-Ly10 [32] = assay: Growth inhibition of human OCILY10 cells at 10 uM incubated for 3 days in presence of 0.033 uM acalabrutinib relative to control; conditions: OCI-Ly10, 72 h, time 3 day, read-out: GI
SUD4 [33] = assay: Growth inhibition of human SU-DHL-4 cells at 0.33 uM incubated for 3 days in presence of 0.033 uM acalabrutinib relative to control; conditions: SU-DHL-4, 72 h, time 3 day, read-out: GI
SUD4 [34] = assay: Growth inhibition of human SU-DHL-4 cells at 1.7 uM incubated for 3 days in presence of 0.003 uM acalabrutinib relative to control; conditions: SU-DHL-4, 72 h, time 3 day, read-out: GI
OCI-Ly10 [35] = assay: Growth inhibition of human OCILY10 cells at 0.17 uM incubated for 3 days in presence of 0.033 uM acalabrutinib relative to control; conditions: OCI-Ly10, 72 h, time 3 day, read-out: GI
OCI-Ly10 [36] = assay: Growth inhibition of human OCILY10 cells at 3.3 uM incubated for 3 days in presence of 0.17 uM acalabrutinib relative to control; conditions: OCI-Ly10, 72 h, time 3 day, read-out: GI
OCI-Ly10 [37] = assay: Growth inhibition of human OCILY10 cells at 0.17 uM incubated for 3 days in presence of 0.17 uM acalabrutinib relative to control; conditions: OCI-Ly10, 72 h, time 3 day, read-out: GI
SUD4 [38] = assay: Growth inhibition of human SU-DHL-4 cells at 0.17 uM incubated for 3 days in presence of 0.33 uM acalabrutinib relative to control; conditions: SU-DHL-4, 72 h, time 3 day, read-out: GI
SUD4 [39] = assay: Growth inhibition of human SU-DHL-4 cells at 0.17 uM incubated for 3 days in presence of 0.17 uM acalabrutinib relative to control; conditions: SU-DHL-4, 72 h, time 3 day, read-out: GI
SUD4 [40] = assay: Growth inhibition of human SU-DHL-4 cells at 1.7 uM incubated for 3 days in presence of 0.33 uM acalabrutinib relative to control; conditions: SU-DHL-4, 72 h, time 3 day, read-out: GI
SUD4 [41] = assay: Growth inhibition of human SU-DHL-4 cells at 10 uM incubated for 3 days in presence of 0.017 uM acalabrutinib relative to control; conditions: SU-DHL-4, 72 h, time 3 day, read-out: GI

CC[C@@H]1[C@H](F)C(=O)N[C@@H]1COc1nccc2cc(C(N)=O)c(OC)cc12 [ZIMLOVISERTIB]
inhibition of growth at 3.3 µM (OCI-Ly10 [1]): 95% | inhibition of growth at 3.3 µM (OCI-Ly10 [2]): 170% | inhibition of growth at 0.33 µM (OCI-Ly10 [3]): 172% | inhibition of growth at 3.3 µM (OCI-Ly10 [4]): 36% | inhibition of growth at 10 µM (SUD4 [5]): 2% | inhibition of growth at 10 µM (OCI-Ly10 [6]): 177% | inhibition of growth at 10 µM (SUD4 [7]): 7% | inhibition of growth at 10 µM (OCI-Ly10 [8]): 80% | inhibition of growth at 10 µM (OCI-Ly10 [9]): 178% | inhibition of growth at 0.33 µM (OCI-Ly10 [10]): 171% | inhibition of growth at 0.33 µM (OCI-Ly10 [11]): 21% | inhibition of growth at 1.7 µM (SUD4 [12]): 2% | inhibition of growth at 3.3 µM (SUD4 [13]): 2% | inhibition of growth at 0.17 µM (SUD4 [14]): 1% | inhibition of growth at 0.17 µM (OCI-Ly10 [15]): 22% | inhibition of growth at 3.3 µM (SUD4 [16]): 6% | inhibition of growth at 1.7 µM (OCI-Ly10 [17]): 170% | inhibition of growth at 1.7 µM (SUD4 [18]): 1% | inhibition of growth at 3.3 µM (OCI-Ly10 [19]): 139% | inhibition of growth at 0.33 µM (OCI-Ly10 [20]): 92% | inhibition of growth at 10 µM (OCI-Ly10 [21]): 140% | inhibition of growth at 3.3 µM (SUD4 [22]): 2% | inhibition of growth at 0.17 µM (OCI-Ly10 [23]): 93% | inhibition of growth at 3.3 µM (SUD4 [24]): 3% | inhibition of growth at 0.17 µM (OCI-Ly10 [25]): 171% | inhibition of growth at 1.7 µM (SUD4 [26]): 3% | inhibition of growth at 1.7 µM (OCI-Ly10 [27]): 170% | inhibition of growth at 3.3 µM (SUD4 [28]): 2% | inhibition of growth at 10 µM (SUD4 [29]): 2% | inhibition of growth at 10 µM (SUD4 [30]): 3% | inhibition of growth at 0.17 µM (SUD4 [31]): 1% | inhibition of growth at 10 µM (OCI-Ly10 [32]): 155% | inhibition of growth at 0.33 µM (SUD4 [33]): 1% | inhibition of growth at 1.7 µM (SUD4 [34]): 2% | inhibition of growth at 0.17 µM (OCI-Ly10 [35]): 142% | inhibition of growth at 3.3 µM (OCI-Ly10 [36]): 170% | inhibition of growth at 0.17 µM (OCI-Ly10 [37]): 171% | inhibition of growth at 0.17 µM (SUD4 [38]): 6% | inhibition of growth at 0.17 µM (SUD4 [39]): 2% | inhibition of growth at 1.7 µM (SUD4 [40]): 6% | inhibition of growth at 10 µM (SUD4 [41]): 3%
